ChEMBL document CHEMBL5131429, “Synthesis and antifungal evaluation of phenol-derived bis(indolyl)methanes combined with FLC against Candida albicans” (Bioorg Med Chem Lett, 2022)
In brackets after ≈: the same amount, converted by molar mass.

Legend:
Format in all cases: functional
Candida albicans [1] = assay: Antifungal activity against Candida albicans SC5314 by microdilution method
Candida albicans [2] = assay: Antifungal activity against Candida albicans CA23 by microdilution method
Candida albicans [3] = assay: Antifungal activity against Candida albicans SC5314 in presence of fluconazole by microdilution method
Candida albicans [4] = assay: Antifungal activity against Candida albicans CA23 in presence of fluconazole by microdilution method
Candida albicans [5] = assay: Antifungal activity against Candida albicans CA23 assessed as fractional inhibitory concentration index in presence of fluconazole by microdilution method
Candida albicans [6] = assay: Antifungal activity against Candida albicans SC5314 assessed as fractional inhibitory concentration index in presence of fluconazole by microdilution method

Row | SMILES | MIC80 (Candida albicans [1]) [µg/mL] | MIC80 (Candida albicans [2]) [µg/mL] | MIC80 (Candida albicans [3]) [µg/mL] | MIC80 (Candida albicans [4]) [µg/mL] | fractional inhibitory concentration index (FICI) (Candida albicans [5]) | fractional inhibitory concentration index (FICI) (Candida albicans [6])
1 | O=[N+]([O-])c1ccc(O)c(C(c2c[nH]c3ccccc23)c2c[nH]c3ccccc23)c1 | 0.69 (≈ 1.8 µM) | 180 (≈ 471 µM) | 25.6 | 29.3 | 0.18 | –
2 | Cc1ccc(C(c2c[nH]c3ccccc23)c2c[nH]c3ccccc23)c(O)c1 | > 200 | 37 (≈ 105 µM) | 3.67 | 5.75 | 0.02 | 0.14
3 | CN(C)c1ccc(C(c2c[nH]c3ccccc23)c2c[nH]c3ccccc23)c(O)c1 | 0.37 (≈ 0.97 µM) | 24 (≈ 62.8 µM) | 0.94 | 5.76 | 0.24 | 2.57
4 | Oc1cc(F)c(Br)cc1C(c1c[nH]c2ccccc12)c1c[nH]c2ccccc12 | 4.97 (≈ 11.4 µM) | > 200 | 0.82 | 5.95 | 0.02 | 0.2
5 | Oc1cc(F)ccc1C(c1c[nH]c2ccccc12)c1c[nH]c2ccccc12 | > 200 | > 200 | 15.5 | 7.4 | 0.02 | 0.58
6 | COc1ccc(C(c2c[nH]c3ccccc23)c2c[nH]c3ccccc23)c(O)c1 | 1.85 (≈ 5.02 µM) | 32.7 (≈ 88.9 µM) | 1.01 | 5.79 | 0.18 | 0.58
7 | Oc1c(Cl)cc(Br)cc1C(c1c[nH]c2ccccc12)c1c[nH]c2ccccc12 | > 200 | 18.3 (≈ 40.6 µM) | 0.9 | 6.59 | 0.36 | 0.04
8 | Oc1ccc(O)c(C(c2c[nH]c3ccccc23)c2c[nH]c3ccccc23)c1 | 32.1 (≈ 90.5 µM) | 5.91 (≈ 16.7 µM) | 1.05 | 5.7 | 0.98 | 0.07
9 | Oc1c(Cl)cc(Cl)cc1C(c1c[nH]c2ccccc12)c1c[nH]c2ccccc12 | > 200 | > 200 | 0.55 | 5.88 | 0.02 | 0.02
